According to patent US8703812B2, “Protein synthesis required for long-term memory is induced by PKC activation on days preceding associative learning” (Blanchette Rockefeller Neurosciences Institute, priority 2005, dated 2014):
Entries after “also recorded” stand apart in the source; their conditions may differ.

How the values were obtained:
[1] = system: calexcitin; assay: Calexcitin immunostaining in B-photoreceptors; format: in vivo, Hermissenda
Procedure: Following experimental treatments and testing, animals were rapidly decapitated, the central nervous systems (CNS) removed and then fixed in 4% para-formaldehyde in 20 mM Tris-buffered (pH 8) natural seawater (NSW; 0.2 μm micropore-filtered). The CNSs were then embedded in polyester wax (20), sectioned (6 μm) and immunostained using a biotinylated secondary antibody coupled to avidin-bound microperoxidase (ABC method, Vector), Aminoethylcarbazole (AEC) was used as the chromogen. The primary polyclonal antibody (designated 25U2) was raised in rabbits from the full length calexcitin protein extracted from squid optic lobes. Gray-scale intensity measures were done from digital photomicrographs on circumscribed cytoplasmic areas of the B-photoreceptors minus the same background area (non-staining neuropile).

[2] = cited from earlier work
[3] = system: PKC; settings: cited from earlier work
[4] = system: PKC; assay: Protein kinase C assay (histone phosphorylation) in Hermissenda nervous systems; format: in vivo
Procedure: Bryostatin exposure—Specimens of Hermissenda Crassicornis were maintained in artificial sea water (ASW) at 15° for three days in perforated 50-ml conical centrifuge tubes before starting experiments. Bryostatin, purified from the marine bryozoan Bugula neritina, was dissolved in EtOH and diluted to its final concentration in ASW. Animals were incubated with bryostatin in ASW for 4 hr, then rinsed with normal ASW. For selected experiments lactacysteine (10 μM) or anisomycin was added to the ASW.
Cells were homogenized by sonication (5 sec, 25 W) in 100 μl of 10 mM Tris-HCl pH 7.4 buffer containing 1 mM EGTA, 1 mM PMSF, and 50 mM NaF. Homogenate was transferred to a polyallomer centrifuge tube and was centrifuged at 100,000×g for 10 min at 4°. The supernatant was removed and immediately frozen on dry ice. The particulate fraction was resuspended by sonication in 100 μl of the same buffer and stored at −80°. To measure PKC, 10 μl of cytosol or particulate fraction was incubated for 15 min at 37° in the presence of 10 μM histones, 4.89 mM CaCl2, 1.2 μg/μl phosphatidyl-L-serine, 0.18 μg/μl 1,2-dioctanoyl-sn-glycerol, 10 mM MgCl2, 20 mM HEPES (pH 7.4), 0-8 mM EDTA, 4 mM EGTA, 4% glycerol, 8 μg/ml aprotinin, 8 μg/ml leupeptin, and 2 mM benzamidine. 0.5 μCi [γ^32P]ATP was added and ^32P-phosphoprotein formation was measured by adsorption onto phosphocellulose as described previously (25). This assay was used with slight adjustments for either Hermissenda nervous system homogenates or cultured mammalian neuron homogenates
Intact Hermissenda were exposed for 4 hour intervals to bryostatin (0.28 nM) on successive days under conditions described (“Behavioral Pharmacology”). Histone phosphorylation (See “Methods”) in isolated circumesophageal nervous systems was then measured in the cytosol fraction. […] (FIG. 12, 13). […] After an initial activation (via translocation), this bryostatin effect is most likely due to increased synthesis of PKC, consistent with the increased levels of calexcitin induced by bryostatin, but not directly correlated with repeated bryostatin exposure.

**Q.** Which CE immunostaining ([1]; 24 hours after 1 bryostatin exposure for four hours, no conditioning) does the source give for `CCC/C=C/C=C/C(=O)O[C@H]1/C(=C/C(=O)OC)C[C@H]2C[C@H]([C@@H](C)O)OC(=O)C[C@H](O)C[C@@H]3C[C@H](OC(C)=O)C(C)(C)[C@](O)(C[C@@H]4C/C(=C/C(=O)OC)C[C@H](/C=C/C(C)(C)[C@]1(O)O2)O4)O3` [bryostatin, bryostatin-1] here?
**A.** not elevated

**Q.** What about the CE immunostaining ([1]; 24 hours after 2 bryostatin exposures on two successive days, no conditioning) of the same compound?
**A.** greater residual CE immunostaining

**Q.** And the “levels of calexcitin in B-photoreceptors” value ([1]; bryostatin alone 4-hr over each of 1, 2, and 3 days, measured 24 hours after each)?
**A.** progressively increased the levels of calexcitin

**Q.** And the CE immunostaining ([1]; bryostatin plus 6 TE)?
**A.** comparable to that observed after 9 TE

**Q.** What about the calexcitin levels increase ([1]; paired training (6PTE) with bryostatin 0.25) of the same compound?
**A.** greater than 4.3 ×

**Q.** And the “rise in calexcitin (CE) immuno-intensity” value ([1]; random training (4RTE) with bryostatin 0.25)?
**A.** 2.0

**Q.** What about the CE immunostaining ([1]; three 4 hour bryostatin exposures, 2 TE on subsequent day, 24 hours later) of the same compound?
**A.** approached the levels previously observed immediately following 9 TE

**Q.** What about the calexcitin level ([1]; two 4-hr bryostatin exposures (0.25 ng/ml) on successive days, then 2-paired TEs) of the same compound?
**A.** significantly increased calexcitin to levels associated with 9-paired TEs; also recorded: raise calexcitin levels to the amount associated with consolidated long-term memory

**Q.** What about the tolerability ([2]; 20 μg/m^2 once per week for 3 weeks) of the same compound?
**A.** well tolerated and were not associated with myalgia or other side effects

**Q.** And the maximum-tolerated dose ([2]; 1 hour i.v. infusion once every 2 weeks for 6 weeks)?
**A.** 50 μg/m^2

**Q.** What about the maximum tolerated dose ([2]; once per week for 8 weeks) of the same compound?
**A.** 25 μg/m^2

**Q.** What about the “myalgia reported, of all treated patients” value ([2]; phase II clinical trials) of the same compound?
**A.** 10 to 87%

**Q.** What about the “concentrations that activate PKC” value [3] of the same compound?
**A.** sub-nanomolar

**Q.** And the “PKC activity, membrane fraction” value ([4]; 24 hours after the second of two bryostatin exposures)?
**A.** significantly increased over baseline

**Q.** What about the “PKC activity, cytosol fraction” value ([4]; bryostatin 0.28 nM 4 hour on successive days, 10 minutes and 24 hours after second of two exposures) of the same compound?
**A.** significantly increased over baseline levels
